# Assay results reported in patent US6485970B1, “Immunointeractive antibody” (priority 1997, dated 2002).
# Ends that are not written are not given here.
# Columns and labels:
# sensory nerves [1] = experiment: Rat footpad blister model, vascular response to antidromic electrical stimulation of the sciatic nerve; assay type: in vivo
# Procedure: (§1) A vacuum-induced blister model in the footpad of anaesthetised rats is used to induce an inflammatory response in naive skin by (a) electrical stimulation (ES) of the distal end of the cut sciatic nerve at 20 v, 5 Hz, […] for 1 min or (b) superfusion of the sensory neuropeptide; substance P (SP) over the blister base.
# (§2) Male outbred Sprague-Dawley rats with an average weight of 250-300 gm were used (n=6-8 per group). Anaesthesia was induced with pentobarbitone sodium (Nembutal, 60 mg/kg, i.p.). To ensure that rats remained under a constant stage of surgical anaesthesia additional doses (15 mg/kg) were administered during the experiment. The absence of an eyelash reflex was used as an indication of the level of unconciousness. At the end of the experiment, animals were killed by barbituate overdose (100 mg/kg).
# A blister was induced on the hind footpad on the anaesthetised rat by applying a vacuum pressure of −40 kPa to the glabrous skin for approximately 30 mins, using a metal suction cap heated to 40° C. by an attached heating element.
# When a blister was established, the surface epithelium was removed and a perspex chamber with inlet and outlet ports was fixed over the blister base. Perfusion of the drugs over the blister was maintained at 4 ml/h by a peristaltic pump (Microperpex S, LKB, Sweden). Both perfusion and body temperature were kept at 37° C.
# An initial 15 min equilibration with Ringer's solution (NaCl 9.0 g, KCl 0.42 g, CaCl2 0.48 g, NaHCO3 0.2 g in 1000 ml dH2O) was allowed before each experiment, during which time a stable baseline was established.
# The right sciatic nerve in the mid-thigh region of the anaesthetised rat was dissected free and cut as proximally as possible. The distal portion of the cut nerve was placed over bipolar platinum electrodes and immersed in liquid paraffin warmed to 37° C. and contained in a bath that was formed by raising the skin flaps of the wound. The distal end of the sciatic nerve was stimulated with a Grass S48 stimulator at 20 V, 5 Hz, 0.5 ms square waves for 1 min. These parameters were previously shown to stimulate sensory nerves with subsequent release of sensory peptides.
# (§3) For measurement of local blood flow, a probe attached to a laser Doppler flowmeter (Periflux, PF2B, Perimed, Sweden) was inserted vertically through a third port in the perspex chamber above the blister base. Relative blood flow was recorded over time on a chart recorder and measured as the surface area under the response curve in cm^2 using a digital planimeter.
# (§4) Vasodilator responses were measured as the area under the response curve (cm^2) using a digital planimeter (Tamaya, Japan). For vascular responses to ES the area was measured for 20 min following stimulation. […] Results are expressed as mean±SEM. […]
# [2] = human, in vivo
# sensory nerves [3] = experiment: Rat footpad blister model, vascular response to substance P perfusion; assay type: in vivo; settings: SP 1 μM alone
# Procedure: as §1
# as §2, with “At the end of the experiment, animals were killed by barbituate overdose (100 mg/kg).” left out
# as §3, §4
# BA-TABM = experiment: Competitive inhibition ELISA, BA-TABM against plate bound BA-HSA; assay type: binding, human; settings: competitor pre-incubated with BA-TABM
# Procedure: FIG. 13 is a graphical representation of competitive inhibition ELISA between BA-TABM and various haptens. Purified BA-TABM was diluted and pre-mixed with various haptens. […] The amount of TABM binding as determined using the mouse monoclonal anti-human TABM antibody (MG3C9-1A12). [drawing 12]
# FIG. 14 is a graphical representation showing inhibition ELISA between BA-TABM and various chemicals. Purified BA-TABM was diluted and pre-mixed with various chemicals. […] The amount of TABM binding was determined using the mouse monoclonal anti-human TABM antibody (MG3C9-1A12). [drawing 13]
# The competing antigens or haptens were serially diluted (½) in the diluted serum to give a range equivalent to 5000-312.5 ng per well. […] The plate was then incubated for 60 minutes at 37° C. After washing, mouse anti-human TABM was diluted ( 1/2000), added to the plate and incubated for 90 minutes at 37° C., followed by sheep anti-mouse immunoglobulins ( 1/1000). The assay was then completed as previously described. The same ELISA conditions were used with non-bound organic molecules, except that pre-incubation of competing molecules with BA-TABM and serum was for 60 minutes.
compound,measurement,setting,value
"COc1cc(CNC(=O)CCCC/C=C/C(C)C)ccc1O [capsaicin, reference compound]",area of the vascular response to ES,"sensory nerves [1]; capsaicin-pretreated rats (50 mg/kg s.c., neonatal), no TGF-β",11.7±1.1 cm^2
Cc1ccccc1 [toluene],"Digit Symbol, Post Challenge Mean",[2],40.00 No. of correct items
same,"Focal Length, Post Challenge Mean",[2],29.53 cms
same,Letter Cancellation,[2],63% correct
same,"Letter Cancellation Time, Post Challenge Mean",[2],4.79 min
same,Letter Cancellation time,[2],(5′40″)
same,"Letter Cancellation, Post Challenge Mean",[2],77.56 % Correct
same,"Prose Memory (delayed), Post Challenge Mean",[2],8.77 No. Items recalled
same,"Prose Memory (immediate), Post Challenge Mean",[2],7.36 No. Items recalled
same,Prose: Delayed Recall,[2],6.5 items
same,Prose: Immediate Recall,[2],6 items
same,"STROOP (colour), Post Challenge Mean",[2],74.43 No. seconds/100 words
same,"STROOP (colour-word), Post Challenge Mean",[2],119.73 No. seconds/100 words
same,"STROOP (word), Post Challenge Mean",[2],58.93 No. seconds/100 words
same,Stroop: Colour word,[2],161 s
same,Stroop: Colours,[2],90 s
same,Stroop: Words,[2],75 s
same,Symbol Digit,[2],32 items
"Substance P (RPKPQQFFGLM; ends and bridges not checked; UniProt P20366 58-68, looked up) [SP, sensory neuropeptide]","vasodilatation response to SP, area under curve 30 min",sensory nerves [3],44.1±3.9 cm^2
TGF-β,area of the vascular response to ES in presence of TGF-β,"sensory nerves [1]; capsaicin-pretreated rats, TGF-β 10 pg/ml",12.1±1.0 cm^2
same,effect on baseline blood flow,"sensory nerves [1]; control rats, TGF-β 10 pg/ml",did not alter the baseline
same,"area under the vascular response curve to ES, 20 min","sensory nerves [1]; control rats, TGF-β 10 pg/ml perfused 10 min prior to ES and post stimulation",31.44±3.2 cm^2
TMA-BSA: trimellitic acid (TMA) protein conjugate,inhibition of BA-TABM binding to plate bound BA-HSA,BA-TABM,Weaker inhibition
